In patent US20110034427A1, “Anti-aging properties of quercetin, 18alpha-glycyrrhetinic acid and hederagenin and their derivatives” (priority 2009, published 2011):
“Also recorded” adds a separate entry of the source.

Key:
[1] = system: HFL-1 human diploid fibroblasts; assay: Lifespan (cumulative population doublings) and morphology of human diploid fibroblasts under continuous treatment; assay type: cell-based; settings: for appearance of the senescent phenotype (conclusion): continuous treatment, morphology, shape, β-galactosidase positive cells
Experimental: 1.1. HFL-1 human diploid fibroblasts (HDFs) were used in in vitro conditions (growth at 37° C., 5% CO2 and 95% humidity).
1.2. The cells were maintained in Dulbecco's modified Eagle's medium (DMEM®; Invitrogen Life Technologies Inc.) supplemented with 10% (v/v) fetal calf serum, 100 Units/ma penicillin, 100 μg/ml strepromycin, 2 mM glutamine and 1% (v/v) non-essential amino acids (complete medium).
1.3. The cells were constantly cultured in culture medium supplemented with the substances [final concentration for quercetin (QUER), 18α-glycyrrhetinic acid (18α GA), and hederagenin (HED): 2 μg/ml and for quercetin caprylate (QU-CAP) three concentrations were applied: 0.5, 2 and 5 μg/ml]. Quercetin, 18α-glycyrrhetinic acid and hederagenin were diluted in DMSO (dimethyl sulfoxide) whereas quercetin caprylate was diluted in caprilic/capric triglycerides (CAP). Therefore, the control cultures were incubated in medium supplemented with 0.1% DMSO or 0.1% CAP.
1.4. The cells were replenished with fresh media supplemented with the substances or the diluents every 24 h and their numbers were examined using a Coulter Z2® counter (Coulter Corporation) until they reached senescence (approximately after 13 weeks). The cumulative population doublings performed by each culture were calculated using the following formula: CPD=Σ[PD] where PD=LOG [Nfinal/Ninitial]/LOG [2], where N final represents the number of cells that were measured when each culture reached confluence and N initial represents the number of cells that was initially seeded.
1.5. Photographs of the cells maintained in cell culture and treated with the various substances for the same time period were taken.
1.6. […] More specifically, cells that were incubated with quercetin caprylate gave up to 2.8% more population doublings as compared to the population doublings performed by the relative control cultures. Cells that were incubated with the other substances gave up to 2.9% more population doublings as compared to their relative control cultures.
1.7. […] Cells that were treated with either of the tested substances maintained the young morphology for longer as compared to the control cultures (DMSO-treated and CAP-treated).

[2] = system: middle aged and terminally senescent HFL-1 HDFs; assay: Reversal of senescent phenotype in middle aged and terminally senescent cells; assay type: cell-based, human; settings: for proliferation of middle aged cells (FIG. 3A): middle aged HFL-1 (cpd 59), QUER, 18α GA 2 μg/ml, QU-CAP 0.5, 2 and 5 μg/ml; for proliferation of middle aged cells (FIG. 3A) / proliferation of terminally senescent cells (FIG. 3B): 1 week; for morphology of middle aged cells (FIG. 4A) / β-galactosidase activity staining of middle aged cells (FIG. 4A): middle aged HFL-1, 1 week; for β-galactosidase activity staining of middle aged cells (FIG. 4A): QU-CAP all three concentrations; for reversal of the senescent phenotype / rejuvenation effect (conclusion): middle aged cells or terminally senescent cells; for proliferation of terminally senescent cells (FIG. 3B): terminally senescent HFL-1 (cpd 65), QUER 2 μg/ml, QU-CAP 2 and 5 μg/ml; for morphology of terminally senescent cells (FIG. 4B) / β-galactosidase activity of terminally senescent cells (FIG. 4B): terminally senescent HFL-1, 1 week, QU-CAP higher concentrations
Experimental: 3.1. HFL-1 HDFs that have senesced in vitro were used (growth at 37° C., 5% CO2 and 95% humidity). More specifically, middle aged HFL-1 HDFs (cpd 59) and terminally senescent HFL-1 HDFs (cpd 65) that had senesced in the absence of any substance were used.
3.2. The cells were seeded and maintained in complete medium (see 1.2). Culture medium supplemented with the substances [final concentration for quercetin (QUER), 18α-glycyrrhetinic acid (18α GA), and hederagenin (HED): 2 μg/ml and for quercetin caprylate (QU-CAP) three concentrations were applied: 0.5, 2 and 5 μg/ml] or the diluents (0.1% DMSO or 0.1% CAP) were added 24 h later. The cells were replenished with fresh media supplemented with the substances or the diluents every 24 h for 1 week and their numbers were then examined using a Coulter Z2® counter (Coulter Corporation).
3.3. Detection of β-galactosidase activity was performed in these cells as described above and photographs of the cells following β-galactosidase activity assay were taken.

HFL-1 HDFs [3] = assay: Cellular survival with or without oxidative stress; assay type: cell-based, human; settings: for survival to an oxidative stress challenge (conclusion): vs control cells
Experimental: 6.1. HFL-1 HDFs were cultured as described in 5.1. Following the incubation with the various substances cells were collected and counted using a Coulter Z2® counter (Coulter Corporation). In replica cultures, culture medium supplemented with the substances as described above were also supplemented with 300 μM H2O2 for 2.5 h. The cells were then thoroughly washed with PBS, supplemented with complete medium containing the examined substances and maintained in culture for additional 24 h. They were then collected and counted using a Coulter Z2® counter (Coulter Corporation).

[4] = system: proteasome subunits (β5, α7); assay: Levels of proteasome subunits (immunoblot); assay type: cell-based, human; settings: HFL-1, 24 h treatment
Experimental: 8.1. HFL-1 HDFs were cultured as described in 5.1. Following the incubation with the various substances for 24 h, cells were collected, lysed and proteins were extracted and subjected to SDS-PAGE followed by immunoblot analysis against different proteasome subunits. Protein concentrations were determined using the Bradford method with BSA as a standard.
8.2. […] In total, the increased amount of proteasome subunits expression levels provide an explanation regarding the increased proteasome activities recorded in these cells.

[5] = system: Mouse melanocytes (B10F16 cell line); assay: Cellular whitening of melanocytes (cell pellet); assay type: cell-based; settings: for whitening of melanocyte pellet (FIG. 10): 72 h; for whitening of melanocytes (conclusion): concentration not given
Experimental: A.1. Mouse melanocytes (B10F16 cell line) were used in in vitro conditions (growth at 37° C., 5% CO2 and 95% humidity).
A.2. The cells were maintained in Dulbecco's modified Eagle's medium (DMEM®; Invitrogen Life Technologies Inc.) supplemented with 10% (v/v) fetal calf serum, 100 Units/ma penicillin, 100 μg/ml strepromycin, 2 mM glutamine and 1% (v/v) non-essential amino acids (complete medium).
A.3. 10^5 cells were seeded in petri dishes and the following day they were fed with medium supplemented with the substances [final concentration for all substances: 5 μg/ml and 10 μg/ml]. Quercetin (QUER), 18α-glycyrrhetinic acid (18α GA) and hederagenin (HED) were diluted in DMSO whereas quercetin caprylate was diluted in caprilic/capric triglycerides (CAP). Therefore, the control cultures were incubated in medium supplemented with 0.1% DMSO or 0.1% CAP. The media were replenished every 24 h and the cells were kept under these conditions constantly for 72 h. Cells were then collected and pelleted and the cell pellet was photographed.
A.4. […] The result was positively correlated to the concentration of quercetin used.

tyrosinase = assay: Tyrosinase expression (immunoblot); assay type: cell-based, mouse; settings: for protein expression levels of tyrosinase (conclusion): concentration not given; for protein levels of tyrosinase (FIG. 11): mouse melanocytes, 72 h
Experimental: B.1. Mouse melanocytes were cultured as described in A.1.-A.3. After 72 h of treatment, the cells were collected, lysed and proteins were extracted and subjected to SDS-PAGE followed by immunoblot analysis against tyrosinase. Protein concentrations were determined using the Bradford method with BSA as a standard.

HFL-1 HDFs [6] = assay: Levels of oxidized proteins (OxyBlot analysis); assay type: cell-based, human; settings: HFL-1, 24 h treatment; vs control
Experimental: 4.1. HFL-1 HDFs were cultured as described in 1.1-1.4. Cells treated with the substances for 24 h and were then lysed and proteins were extracted and subjected to SDS-PAGE (sodium dodecylsulfate polyacrylamide gel electrophorese) followed by OxyBlot analysis that detects the carbonylated groups on proteins. OxyBlot™ is a protein oxidation detection kit.
4.2. […] However it is worth mentioning that OxyBlot analysis detects only carbonylated groups on proteins which is just one oxidative stress-mediated post-translational protein modification.

Molecule | appearance of the senescent phenotype (conclusion) [1] | proliferation of middle aged cells (FIG. 3A) [2] | morphology of middle aged cells (FIG. 4A) [2] | β-galactosidase activity staining of middle aged cells (FIG. 4A) [2] | reversal of the senescent phenotype / rejuvenation effect (conclusion) [2] | proliferation of terminally senescent cells (FIG. 3B) [2] | morphology of terminally senescent cells (FIG. 4B) [2] | β-galactosidase activity of terminally senescent cells (FIG. 4B) [2] | survival to an oxidative stress challenge (conclusion) (HFL-1 HDFs [3]) | protein levels of proteasome subunits β5 and α7 (FIG. 9) [4] | whitening of melanocyte pellet (FIG. 10) ([5]; both concentrations (5 and 10 μg/ml)) | whitening of melanocytes (conclusion) [5] | protein expression levels of tyrosinase (conclusion) (tyrosinase) | protein levels of tyrosinase (FIG. 11) (tyrosinase; 5 and 10 μg/ml) | levels of oxidized (carbonylated) proteins (FIG. 5) (HFL-1 HDFs [6]) | higher survival rate after oxidative stress as compared to control cultures (HFL-1 HDFs [3]; 300 μM H2O2 for 2.5 h, then additional 24 h in culture) [%] | higher survival rate as compared to diluent-treated cells (HFL-1 HDFs [3]; 24 h treatment, without oxidative stress) [%] | whitening of melanocyte pellet (FIG. 10) ([5]; lower concentration (5 μg/ml)) | protein levels of tyrosinase (FIG. 11) (tyrosinase; high concentration) | more population doublings as compared to the relative control cultures ([1]; HFL-1, continuous treatment about 13 weeks, QU-CAP 0.5, 2 and 5 μg/ml, others 2 μg/ml, vs 0.1% DMSO or 0.1% CAP)
O=c1c(O)c(-c2ccc(O)c(O)c2)oc2cc(O)cc(O)c12 [quercetin, Quercetin] | delay in the appearance of the senescent phenotype | higher proliferation rates | acquired a morphology more similar to the one exhibited by young cells | less positive to β-galactosidase activity staining | regained a younger morphology and were induced to limited but significant proliferation | limited but significant cell proliferation | acquired a morphology that exhibits more similarities with the morphology of young fibroblasts | many of those cells were negative for β-galactosidase activity | survived better | elevated protein levels | revealed whitening potential | revealed whitening potential | decrease of the protein expression levels of tyrosinase | reduced protein levels of tyrosinase |  |  |  |  |  | 
CC1(C)[C@@H](O)CC[C@]2(C)[C@H]3C(=O)C=C4[C@H]5C[C@@](C)(C(=O)O)CC[C@]5(C)CC[C@@]4(C)[C@]3(C)CC[C@@H]12 [18α-glycyrrhetinic acid] | delay in the appearance of the senescent phenotype | higher proliferation rates | acquired a morphology more similar to the one exhibited by young cells | less positive to β-galactosidase activity staining | regained a younger morphology and were induced to limited but significant proliferation |  |  |  | survived better | similar |  | revealed whitening potential | decrease of the protein expression levels of tyrosinase |  | lower amounts of oxidized proteins; also recorded: slightly lower levels | 2 | 3.5 | revealed whitening potential |  | 
CC1(C)CC[C@]2(C(=O)O)CC[C@]3(C)C(=CC[C@@H]4[C@@]5(C)CC[C@H](O)[C@@](C)(CO)[C@@H]5CC[C@]43C)[C@@H]2C1 [hederagenin, Hederagenin] |  |  |  |  |  |  |  |  |  | did not detect any up-regulation |  | revealed whitening potential | decrease of the protein expression levels of tyrosinase |  |  |  |  | revealed whitening potential | reduced protein levels of tyrosinase | 
Quercetin caprylate | delay in the appearance of the senescent phenotype | higher proliferation rates | acquired a morphology more similar to the one exhibited by young cells | less positive to β-galactosidase activity staining | regained a younger morphology and were induced to limited but significant proliferation | limited but significant cell proliferation | acquired a morphology that exhibits more similarities with the morphology of young fibroblasts | many of those cells were negative for β-galactosidase activity | survived better | elevated protein levels |  |  |  | reduced protein levels of tyrosinase | lower amounts of oxidized proteins; also recorded: less oxidized proteins |  |  |  |  | up to 2.8%
